Measurements: patent US20100240746A1, “STEREOISOMERS OF TRICYCLODECAN-9-YL-XANTHOGENATE” (LUMAVITA AG, priority 2007, published 2010)
≈ marks a conversion by molar mass, not a printed value. Entries after “also recorded” stand apart in the source; their conditions may differ.

Tests used:
[1] = system: HPV-31 specific RNA in HPV-31-infected CIN612 9E keratinocytes; experiment: Short-term study, inhibition of HPV-31 specific RNA expression (Northern Blot); format: cell-based, human papilloma virus; details: Human papillomavirus, Keratinocyte; 72 hrs, 37° C.
Experimental: The inhibitory activities of optically active (−)-enantiomer 1A against human papilloma virus were evaluated using HPV-31-infected CIN612 9E keratinocytes (Meyers et al., Science 1992, 257, 971-973).
Effect on HPV-31 specific DNA and RNA. HPV-31 infected cells (3×10^6) were dispensed into 14.5 cm dishes containing fresh E culture medium and 1×10^6 mitomycin C-treated J2 3T3 fibroblast feeders. After 6 hrs, fresh medium containing 0.85 g/L NaHCO3 and a test compound at a series of concentrations (0, 0.5, 1, 2, 4, 8, 16, and 32 μg/mL) were added. All samples were tested in duplicates at each concentration. After incubation at 37° C. for 72 hrs, the feeder cells were removed with 4 mM EDTA, and DNA and RNA was then isolated. The isolated DNA and RNA were analyzed in Southern and Northern Blot gels for HPV-31 specific sequences. Human A431 epithelial cancer cells were used as HPV-uninfected negative control. X-ray films were scanned and optical densities of HPV-31 specific DNA and major mRNA species were integrated.
Dose response curves were established by plotting integrated values against the concentrations of the test compound.

[2] = system: HPV-31-infected CIN612 9E keratinocytes; experiment: Long-term study, effect on cell proliferation of CIN612 9E cells over 9 passages; format: cell-based, human papilloma virus
Experimental: (§1) HPV-31 infected cells (3×10^6) were dispensed into 14.5 cm dishes containing fresh E medium and 1×10^6 cells of mitomycin C-treated 3T3 fibroblast feeders. The dishes were incubated in a CO2 incubator under 5% CO2 at 37° C. in 100% humidity. Human A431 epithelial cancer cells were used as HPV-uninfected negative controls. After 6 hr incubation, the cell culture medium was removed and fresh E medium containing 0.85 g/L NaHCO3 and a test compound at concentrations of 10 and 3.3 μg/mL, or control (interferon γ at 200 IU/mL) were added. For each concentration, 4 dishes were prepared. The dishes were incubated at 37° C. in a CO2 incubator. The culture medium was replaced to new E medium containing each concentration of the test compound or control in every 72 hrs. After seven days, or when untreated cells became confluent, one dish of each group was harvested for DNA/RNA extraction, followed by Southern/Northern Blot analysis; and one dish was trypsinized, cell number were determined and cells were seeded in three new dishes, treated and cultured as described above. This procedure was repeated for 9 passages. During these passages, morphology of cells and cell density were monitored.
(§2) Effect on cell proliferation. Cell numbers in the dishes harvested were determined in a Neubauer hematocytometer. The multiplication factor was determined at every step of passage. The cell number of each culture at the end of the passage was divided by the number of seeded cells at the start of each passage. The end point was reached when keratinocytes treated with a test compound stopped growing. Stop of cell growth was defined as a multiplication factor of no greater than 1.

[3] = system: A431 cells (epithelial cancer cells); experiment: Long-term study, growth of HPV-uninfected control A431 cells over 9 passages; format: cell-based, human
Experimental: as §1, §2

CIN 612 9E cells = experiment: Long-term study, cell morphology; format: cell-based, human papilloma virus; details: 10 μg/mL, after five passages
Experimental: as §1

[4] = system: HPV-31 specific RNA in HPV-31-infected CIN612 9E keratinocytes; experiment: Long-term study, HPV-31 specific RNA (Northern Blot); format: cell-based, human papilloma virus
Experimental: as §1
Effect on HPV-31 specific DNA and RNA: DNA and RNA were analyzed in Southern and Northern Blot gels for HPV-31 specific sequences. X-ray films were scanned and optical densities of HPV-31 specific DNA and major mRNA species were integrated. Time curves were established by plotting integrated values against number of passages for each treatment dose. The T50 (time required to reduce the level to 50% of control) was determined from the time curves from crossing points of time curves with a line parallel to the x-axis corresponding to 50% of integrals of untreated control sample.

Q: With `S=C(S)OC1CC2CC1C1CCCC21` (single isomer, unassigned; (-)) [(−)-Enantiomer 1A, (−)-O-exo/C-exo-tricyclo[5.2.1.0^2,6]-dec-9-yl-xanthic acid] as the compound, how does the IC50 [1] read?
A: 10.7 mg/L (≈ 46.9 µM)

Q: What about the growth ([2]; 3.3 μg/mL) of the same compound?
A: reduction of the growth rate; also recorded: the cells almost stopped growing after 9 passages

Q: What about the cell proliferation ([2]; 10 μg/mL) of the same compound?
A: significant reduction of cell proliferation

Q: And the multiplication factor ([2]; 10 μg/mL, first five passages)?
A: 2-2.5

Q: What about the cell growth ([3]; 3.3 μg/mL) of the same compound?
A: slight inhibition of cell growth

Q: What about the cell growth ([3]; 10 μg/mL) of the same compound?
A: slight inhibition of cell growth

Q: What about the cell growth ([3]; overall) of the same compound?
A: only minor effects on cell growth

Q: What about the morphology of cells (CIN 612 9E cells) of the same compound?
A: notable change in the morphology; also recorded: growing more organized like untransformed keratinocytes; also recorded: contact inhibited when cultures grew to confluency; also recorded: acquired a flat round shape

Q: What about the “T50 RNA” value ([4]; 3.3 μg/mL) of the same compound?
A: 3.28 passages

Q: What about the “HPV-31 specific RNA content” value ([4]; 3.3 μg/mL or 10 μg/mL) of the same compound?
A: continuous reductions

Q: And the “T50 RNA” value ([4]; 10 μg/mL, listed as (−)-enantiomer 1A)?
A: < 1 passages

Q: And the “T50 RNA” value ([4]; 10 μg/mL, listed as Cmpd 1A)?
A: <1 passages

Q: What about the mrna remaining at 10 µg/mL ([4]; Homo sapiens, Keratinocyte, 10 μg/mL, after 9 passages, read-out: viral RNA remaining) of the same compound?
A: < 1%
